# Experiments:
# [1] = co-administration with ketoconazole; inhibition of the metabolic elimination of cisapride; cited from earlier work
# [2] = target: T1, 5-HT3 receptor subtypes derived from N1E-115 cells (Mus musculus, UniProt P23979); experiment: Receptor binding, 5-HT3 receptor (radioligand binding, Cerep); details: ratio of IC50 at 5-HT3 to IC50 at 5-HT4
# T1 construct: 5-HT3 receptor subtypes derived from N1E-115 cells; host or cells: N1E-115 cells
# T1 sequence (P23979 24-489): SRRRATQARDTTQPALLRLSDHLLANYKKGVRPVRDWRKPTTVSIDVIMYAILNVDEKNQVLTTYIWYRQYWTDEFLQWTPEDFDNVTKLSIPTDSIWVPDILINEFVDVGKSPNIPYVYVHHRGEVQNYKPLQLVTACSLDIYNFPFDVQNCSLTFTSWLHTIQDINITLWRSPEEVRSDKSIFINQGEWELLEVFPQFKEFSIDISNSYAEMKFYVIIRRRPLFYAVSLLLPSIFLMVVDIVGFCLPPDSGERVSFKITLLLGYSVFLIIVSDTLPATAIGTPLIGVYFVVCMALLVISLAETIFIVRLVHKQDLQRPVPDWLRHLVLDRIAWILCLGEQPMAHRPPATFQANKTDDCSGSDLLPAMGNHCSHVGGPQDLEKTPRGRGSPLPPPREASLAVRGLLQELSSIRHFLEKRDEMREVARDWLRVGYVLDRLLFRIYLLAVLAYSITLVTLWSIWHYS
# Procedure: Receptor Binding 5-HT3 Receptor
# Following incubation with the appropriate ligands, the preparations were rapidly filtered under vacuum through GF/B glass fiber filters and washed with ice-old buffer using a Brandel or Packard cell harvester.
# Specific radioligand binding to the receptor was defined as the difference between total binding and nonspecific binding determined in the presence of an excess of unlabeled ligand. Results were expressed as a percent inhibition of specific binding obtained in the presence of the compounds.
5-HT3/5-HT4 Ratio [2],Structure (SMILES),increase of the steady-state plasma levels [1] [fold]
,"COc1cc(N)c(Cl)cc1C(=O)N[C@H]1CCN(CCCOc2ccc(F)cc2)C[C@H]1OC (racemic) [(±) Cisapride, cis-4-amino-5-chloro-N-[1-[3-(4-fluorophenoxy)propyl]-3-methoxy-4-piperidinyl]-2-methoxybenzamide]",8
0.012,"COc1cc(N)c(Cl)cc1C(=O)NC1CCNCC1OC (racemic) [(±) Norcisapride, 4-amino-5-chloro-N-(3-methoxy-4-piperidinyl)-2-methoxybenzamide]",
0.014,"COc1cc(N)c(Cl)cc1C(=O)NC1CCNCC1OC (single isomer, unassigned; (+)) [(+) Norcisapride]",
0.023,"COc1cc(N)c(Cl)cc1C(=O)NC1CCNCC1OC (single isomer, unassigned; (-)) [(−) Norcisapride]",

# Reference: patent US6552045B2 (Sepracor Inc., priority 1999, dated 2003)
